# Assay results from patent publication US7091247B2, “Biphenyl compound” (Takeda Pharmaceutical Company Limited, priority 2000, dated 2006).
# pIC50: −log10 of the molar value. Where a name gives a salt, the structure may show the parent alone.
# How the values were obtained:
# [1] = molecular target: T1, GPR14-expressing CHO cells (Homo sapiens, UniProt Q9UKP6); assay: Change in intracellular calcium concentration in human GPR14-expressing CHO cells (FLIPR, urotensin II-induced); assay type: cell-based; conditions: antagonist activity assay, 10 nM urotensin II added
# T1 construct: expressed in transfected cells; host or cells: CHO dhfr- cells stably transfected with pcDNA3.1-hGPR14 (CHO/hGPR14)
# T1 sequence (Q9UKP6 1-389): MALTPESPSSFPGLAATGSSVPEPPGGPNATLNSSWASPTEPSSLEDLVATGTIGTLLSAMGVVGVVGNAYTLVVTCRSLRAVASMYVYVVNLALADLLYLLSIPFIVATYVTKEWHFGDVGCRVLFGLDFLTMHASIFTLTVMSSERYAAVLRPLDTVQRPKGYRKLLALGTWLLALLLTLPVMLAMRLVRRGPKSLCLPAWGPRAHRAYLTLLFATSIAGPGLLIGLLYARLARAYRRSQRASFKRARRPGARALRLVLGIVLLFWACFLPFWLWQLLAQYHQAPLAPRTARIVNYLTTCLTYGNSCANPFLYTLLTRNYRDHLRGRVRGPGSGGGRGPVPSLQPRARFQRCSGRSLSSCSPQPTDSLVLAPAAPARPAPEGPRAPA
# Protocol: GPR14-expressing CHO cells were inoculated on a 96-well plate at 1×10^4 cell/well, cultured for 48 hours, and then washed with 0.1 ml of HBSS containing 20 mM HEPES(pH 7.4), 1% FCS and 1% penicillin-streptomycin (hereinafter referred to as “wash buffer”). Next, 100 μl of another wash buffer containing 4 μM Fluo3, 0.04% pluronic acid and 2.5 mM probenicid (hereinafter referred to as “reaction buffer”) was added thereto for reaction at 37° C. for 1 hour. The reaction buffer was then removed and the plate was washed three times with 0.2 ml of wash buffer. Then, 90 μl of wash buffer and 10 μl of a solution of test compound in dimethylsulfoxide diluted 10 times (by volume) in membrane diluting buffer were added for agonist activity assay, while, for antagonist activity assay, furthermore 10 μl of 10 nM urotensin II was additionally added to determine change in intracellular calcium concentration in FLIPR (Japan Molecular Device).
# [2] = molecular target: T2, human somatostatin receptor protein subtype 5 (SSTR5) (Homo sapiens, UniProt P35346); assay: Inhibition of binding of [125I]-somatostatin to SSTR5-expressing CHO cell membrane fraction; conditions: 25° C., 60 minutes, Hill plots, read-out: IC50 (concentration at which 50% binding of [125I]-somatostatin was inhibited)
# T2 construct: expressed in transfected cells; host or cells: CHO (dhfr-) cells transfected with pA-1-11-SSTR5; clone SSTR5-32-4
# Protocol: (3) —(CH2)h1—X^1—(CH2)h2—X^2—(CH2)h3— (h1, h2 and h3 are the same or different integers 0 to 10 provided that the sum of h1, h2 and h3 is 0 to 10, and X^1 and X^2 independently represent NH, O, S, SO or SO2 provided that, when h2 is 0, at least one of X^1 and X^2 is preferably NH); etc., and these divalent groups wherein some bonds have been converted into unsaturated bonds. […]
# The SSTR5-expressing CHO cell membrane fraction prepared in Example 5 was diluted with the assay buffer to prepare a solution at a concentration of 3 •g/ml and pipetted into tubes (173 •l/tube). […] After filtration, the radioactivity of [^125I]-somatostatin remaining on the glass filer was measured with a • counter.
# The degree of inhibition of binding (%) by each test substance was determined according to the following equation: The degree of inhibition of binding (%)=(radioactivity when the compound was added−radioactivity when DMSO solution was added)/(radioactivity when somatostatin was added−radioactivity when DMSO solution was added)×100. […]
# human GPR14 = molecular target: T3, human GPR14 (Homo sapiens, UniProt Q9UKP6); assay: Inhibition of binding of [125I]-labeled human urotensin II to human GPR14-expressing CHO cell membrane fraction; conditions: 25° C., 3 hours, read-out: Inhibitory concentration (concentration showing 50% inhibition of human GPR14 binding activity)
# T3 construct: expressed in transfected cells; host or cells: CHO dhfr- cells stably transfected with pcDNA3.1-hGPR14 (CHO/hGPR14)
# T3 sequence (Q9UKP6 1-389): T1 sequence (Q9UKP6 1-389)
# Protocol: To 1×10^8 CHO/GPR14 cells were added 10 ml of homogenate buffer (10 mM NaHCO3, 5 mM EDTA, 0.5 mM PMSF, 1 μg/ml pepstatin, 4 μg/ml E64, 20 μg/ml leupeptin), and disrupted using Polytron (12,000 rpm, 1 minute). Cell debris solution was centrifuged at 1,000 g for 15 minutes to obtain a supernatant. The supernatant was then […] (in Beckman type 30 rotor, 30,000 rpm, 1 hour), and the resultant precipitant was collected as human GPR14-expressing CHO cell fraction.
# Isotope-labeled human urotensin II to be used in experiments for testing inhibition of binding was prepared as described below. 5 μg of human urotensin II (available from Peptide Institute, Inc.) was dissolved in 25 μl of 0.4 M sodium acetate (pH 5.6). […]
# Human GPR14-expressing CHO cell fraction was diluted in a membrane diluting buffer (20 mM phosphate buffer (pH 7.3), 150 mM NaCl, 5 mM MgCl2, 0.1% BSA, 0.05% CHAPS, 0.5 mM PMSF, 0.1 μg/ml Pepstatin, 20 μg/ml Leupeptin, 4 μg/ml E-64) to prepare a solution of cell membrane fraction (protein concentration: 3 μg/ml) for assay. […] Next, the filter was washed three times with membrane diluting buffer (0.2 ml), added with 20 μl of Microscinti 20 (Packard), and determined for radioactivity in Topcount (Packard). Specific-binding is calculated by subtracting non-specific binding from the total binding. […]
# T2 sequence (P35346 whole entry): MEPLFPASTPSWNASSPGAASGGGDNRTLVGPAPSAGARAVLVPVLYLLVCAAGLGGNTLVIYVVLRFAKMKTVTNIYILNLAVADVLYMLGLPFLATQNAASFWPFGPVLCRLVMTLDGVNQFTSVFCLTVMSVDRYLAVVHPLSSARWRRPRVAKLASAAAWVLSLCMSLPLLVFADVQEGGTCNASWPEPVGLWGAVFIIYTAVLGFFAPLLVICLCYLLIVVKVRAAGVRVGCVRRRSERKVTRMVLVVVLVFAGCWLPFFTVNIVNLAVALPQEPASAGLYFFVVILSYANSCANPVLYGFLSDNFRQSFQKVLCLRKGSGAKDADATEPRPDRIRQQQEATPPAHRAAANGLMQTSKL
SMILES,pIC50 [2],pIC50 (human GPR14),further results
"NCCNC(=O)c1cccc(-c2cccc(CN(CCc3ccc(S(N)(=O)=O)cc3)C(=O)/C=C/c3ccccc3)c2)c1.O=C(O)C(F)(F)F [Example 71, N-(2-Aminoethyl)-3′-({[4-(aminosulfonyl)phenethyl][(E)-3-phenyl-2-propenoyl]amino}methyl)[1,1′-biphenyl]-3-carboxamide trifluoroacetate]",,,Inhibition of urotensin II-induced increase in intracellular calcium concentration [1]: inhibited urotensin II-induced increase in intracellular calcium concentration
"NS(=O)(=O)c1ccc(CCN(Cc2cccc(-c3cccc(C(=O)NCCN4CCCC4)c3)c2)C(=O)COCc2ccccc2)cc1 [Example 6, 3′-{({2-[4-(Aminosulfonyl)phenyl]ethyl}[(benzyloxy)acetyl]amino)methyl}-N-[2-(1-pyrrolidinyl)ethyl][1,1′-biphenyl]-3-carboxamide hydrochloride]",,7.89,

# Second part, led by results:
pIC50 [2],pIC50 (human GPR14),SMILES,further results
8.52,,"NCCNC(=O)c1ccccc1-c1cccc(CN(Cc2cccc3ccccc23)C(=O)c2ccc(S(N)(=O)=O)cc2)c1 [Example 328, N-(2-Aminoethyl)-3′-{[[4-(aminosulfonyl)benzoyl](1-naphthylmethyl)amino]methyl}-1,1′-biphenyl-2-carboxamide trifluoroacetate]",
8.22,,"N=C(N)NCc1cccc(C(=O)N(Cc2cccc(-c3ccccc3C(=O)NCCN)c2)Cc2cccc3ccccc23)c1 [Example 325, N-(2-Aminoethyl)-3′-{[[3-({[amino(imino)methyl]amino}methyl)benzoyl](1-naphthylmethyl)amino]methyl}-1,1′-biphenyl-2-carboxamide trifluoroacetate]",
,8.00,"NS(=O)(=O)c1ccc(CCN(Cc2cccc(-c3cccc(C(=O)NCCN4CCCC4)c3)c2)C(=O)CCCc2ccccc2)cc1 [Example 4, 3′-{({2-[4-(Aminosulfonyl)phenyl]ethyl}[4-phenylbutanoyl]amino)methyl}-N-[2-(1-pyrrolidinyl)ethyl][1,1′-biphenyl]-3-carboxamide hydrochloride]",
